Results published in article PMC10041525, “New Dual Inhibitors of Bacterial Topoisomerases with Broad-Spectrum Antibacterial Activity and In Vivo Efficacy against Vancomycin-Intermediate Staphylococcus aureus” (Journal of Medicinal Chemistry, 2023).
Converted amounts (≈) assume the structure as drawn. Read-outs that look alike come from different tables or passages of the source.

Columns and labels:
E. coli ATCC 25922 = assay: IHMA QC MIC; type: cell-based; details: Escherichia coli, ATCC25922; read-out: MIC (QC, repeated tests)
[1] = tested on: 100 A. baumannii strains (50 MDR, 50 non-MDR); assay: MIC broth microdilution at IHMA Europe, panel of 100 strains; type: cell-based; details: Acinetobacter baumannii, read-out: MIC

CO/N=C(\C(=O)N[C@@H]1C(=O)N2C(C(=O)[O-])=C(C[N+]3(C)CCCC3)CS[C@H]12)c1csc(N)n1 [Cefepime, cefepime]
MIC (E. coli ATCC 25922): ≤ 0.25 µg/mL
MIC ([1]; A. baumannii IHMA 1769782, Israel 2018, MDR): > 32 µg/mL
MIC ([1]; A. baumannii IHMA 1769910, Israel 2018, Non-MDR): 8 µg/mL (≈ 16.6 µM)
MIC ([1]; A. baumannii IHMA 1790317, Czech Republic 2018, Non-MDR): 1 µg/mL (≈ 2.08 µM)
MIC ([1]; A. baumannii IHMA 1790916, Romania 2018, Non-MDR): 0.5 µg/mL (≈ 1.04 µM)
MIC ([1]; A. baumannii IHMA 1791877, Israel 2018, MDR): > 32 µg/mL
MIC ([1]; A. baumannii IHMA 1792961, Jordan 2018, MDR): > 32 µg/mL
MIC ([1]; A. baumannii IHMA 1795669, Tunisia 2018, Non-MDR): 4 µg/mL (≈ 8.32 µM)
MIC ([1]; A. baumannii IHMA 1814276, Lebanon 2018, MDR): > 32 µg/mL
MIC ([1]; A. baumannii IHMA 1815198, Kuwait 2018, MDR): > 32 µg/mL
MIC ([1]; A. baumannii IHMA 1815856, Israel 2018, MDR): > 32 µg/mL
MIC ([1]; A. baumannii IHMA 1829500, Georgia 2018, Non-MDR): 1 µg/mL (≈ 2.08 µM)
MIC ([1]; A. baumannii IHMA 1830924, United Kingdom 2018, Non-MDR): 4 µg/mL (≈ 8.32 µM)
MIC ([1]; A. baumannii IHMA 1849819, Kuwait 2018, MDR): > 32 µg/mL
MIC ([1]; A. baumannii IHMA 1849829, Kuwait 2018, Non-MDR): 1 µg/mL (≈ 2.08 µM)
MIC ([1]; A. baumannii IHMA 1857118, Slovenia 2018, Non-MDR): 1 µg/mL (≈ 2.08 µM)
MIC ([1]; A. baumannii IHMA 1863631, France 2018, Non-MDR): 1 µg/mL (≈ 2.08 µM)
MIC ([1]; A. baumannii IHMA 1884428, Italy 2018, Non-MDR): 1 µg/mL (≈ 2.08 µM)
MIC ([1]; A. baumannii IHMA 1884990, Germany 2018, Non-MDR): 1 µg/mL (≈ 2.08 µM)
MIC ([1]; A. baumannii IHMA 1900538, Turkey 2018, Non-MDR): 0.5 µg/mL (≈ 1.04 µM)
MIC ([1]; A. baumannii IHMA 1913773, Kenya 2018, Non-MDR): 1 µg/mL (≈ 2.08 µM)
MIC ([1]; A. baumannii IHMA 1926285, Qatar 2018, Non-MDR): ≤ 0.25 µg/mL
MIC ([1]; A. baumannii IHMA 1926288, Qatar 2018, MDR): 32 µg/mL (≈ 66.6 µM)
MIC ([1]; A. baumannii IHMA 1963732, Turkey 2019, MDR): 32 µg/mL (≈ 66.6 µM)
MIC ([1]; A. baumannii IHMA 1967860, Spain 2019, Non-MDR): 4 µg/mL (≈ 8.32 µM)
MIC ([1]; A. baumannii IHMA 1971673, Latvia 2019, MDR): > 32 µg/mL
MIC ([1]; A. baumannii IHMA 1983151, Greece 2019, MDR): 32 µg/mL (≈ 66.6 µM)
MIC ([1]; A. baumannii IHMA 1984665, Lithuania 2019, MDR): > 32 µg/mL
MIC ([1]; A. baumannii IHMA 1986738, Turkey 2019, MDR): > 32 µg/mL
MIC ([1]; A. baumannii IHMA 1987162, Croatia 2019, MDR): > 32 µg/mL
MIC ([1]; A. baumannii IHMA 1993615, Turkey 2019, MDR): > 32 µg/mL
MIC ([1]; A. baumannii IHMA 1994284, Italy 2019, MDR): 32 µg/mL (≈ 66.6 µM)
MIC ([1]; A. baumannii IHMA 1995161, Czech Republic 2019, Non-MDR): 1 µg/mL (≈ 2.08 µM)
MIC ([1]; A. baumannii IHMA 1997936, Morocco 2019, Non-MDR): 1 µg/mL (≈ 2.08 µM)
MIC ([1]; A. baumannii IHMA 1999178, Belgium 2019, Non-MDR): 1 µg/mL (≈ 2.08 µM)
MIC ([1]; A. baumannii IHMA 2003279, Turkey 2019, MDR): > 32 µg/mL
MIC ([1]; A. baumannii IHMA 2014931, South Africa 2019, Non-MDR): 1 µg/mL (≈ 2.08 µM)
MIC ([1]; A. baumannii IHMA 2019315, Romania 2019, Non-MDR): 0.5 µg/mL (≈ 1.04 µM)
MIC ([1]; A. baumannii IHMA 2020360, Croatia 2019, MDR): 32 µg/mL (≈ 66.6 µM)
MIC ([1]; A. baumannii IHMA 2031511, Greece 2019, Non-MDR): 1 µg/mL (≈ 2.08 µM)
MIC ([1]; A. baumannii IHMA 2031524, Greece 2019, MDR): > 32 µg/mL
MIC ([1]; A. baumannii IHMA 2034657, Tunisia 2019, Non-MDR): 1 µg/mL (≈ 2.08 µM)
MIC ([1]; A. baumannii IHMA 2035089, Serbia 2019, MDR): 32 µg/mL (≈ 66.6 µM)
MIC ([1]; A. baumannii IHMA 2035134, Serbia 2019, Non-MDR): 1 µg/mL (≈ 2.08 µM)
MIC ([1]; A. baumannii IHMA 2038976, Hungary 2019, MDR): 32 µg/mL (≈ 66.6 µM)
MIC ([1]; A. baumannii IHMA 2051503, Serbia 2019, MDR): > 32 µg/mL
MIC ([1]; A. baumannii IHMA 2058329, Slovenia 2019, Non-MDR): 1 µg/mL (≈ 2.08 µM)
MIC ([1]; A. baumannii IHMA 2065587, France 2019, Non-MDR): 1 µg/mL (≈ 2.08 µM)
MIC ([1]; A. baumannii IHMA 2099294, United Kingdom 2019, Non-MDR): 4 µg/mL (≈ 8.32 µM)
MIC ([1]; A. baumannii IHMA 2129256, Qatar 2019, Non-MDR): 1 µg/mL (≈ 2.08 µM)
MIC ([1]; A. baumannii IHMA 2154584, Israel 2020, MDR): > 32 µg/mL
MIC ([1]; A. baumannii IHMA 2155340, Kenya 2020, MDR): > 32 µg/mL
